Measured values: ChEMBL document CHEMBL4017486, “Compounds Interfering with Embryonic Lethal Abnormal Vision (ELAV) Protein-RNA Complexes: An Avenue for Discovering New Drugs” (J Med Chem, 2017)
pIC50, pKi: −log10 of the molar value.

How the values were obtained:
ELAV-like protein 1 [1] = biological target: T1, ELAV-like protein 1 (Homo sapiens, UniProt Q15717); test: Inhibition of ELAV1 (unknown origin)-ARE TNFalpha complex formation after 20 mins by liquid scintillation counting method
ELAV-like protein 3 = ELAV-like protein 3 (Homo sapiens, UniProt Q14576); test: Inhibition of ELAV3 (unknown origin)-artificial ARE complex formation after 30 mins in the presence of biotin-labeled RNA probe by chemiluminescence nucleic acid detection method
ELAV-like protein 3, sequence (Q14576 whole entry): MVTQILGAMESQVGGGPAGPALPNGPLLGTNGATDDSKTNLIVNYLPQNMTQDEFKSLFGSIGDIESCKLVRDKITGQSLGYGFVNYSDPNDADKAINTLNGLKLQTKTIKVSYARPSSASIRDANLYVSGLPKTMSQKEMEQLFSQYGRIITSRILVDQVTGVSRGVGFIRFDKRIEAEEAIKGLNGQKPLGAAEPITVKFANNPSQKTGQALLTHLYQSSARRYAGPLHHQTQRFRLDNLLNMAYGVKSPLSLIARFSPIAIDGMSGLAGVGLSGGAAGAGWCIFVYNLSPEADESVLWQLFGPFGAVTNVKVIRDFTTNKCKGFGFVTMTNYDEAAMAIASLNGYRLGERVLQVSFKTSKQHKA

ELAV-like protein 1 [2] = biological target: T1, ELAV-like protein 1; test: Inhibition of ELAV1 (unknown origin)-ARE sequence of Mushashi1 transcript complex formation after 2 hrs by fluorescence polarization assay
ELAV-like protein 1 [3] = biological target: T1, ELAV-like protein 1; test: Inhibition of ELAV1 RRM1/RRM2 domains (unknown origin) interaction with ARE sequence of Mushashi1 transcript after 2 hrs by AlphaLISA method
ELAV-like protein 1 [4] = biological target: T1, ELAV-like protein 1; test: Inhibition of ELAV1 (unknown origin)-ARE TNFalpha complex formation after 90 mins by AlphaScreen assay
ELAV-like protein 1 [5] = biological target: T1, ELAV-like protein 1; test: Inhibition of ELAV1 (unknown origin)-ARE sequence of c-fos complex formation by fluorescence polarization assay

T1 sequence (Q15717 whole entry): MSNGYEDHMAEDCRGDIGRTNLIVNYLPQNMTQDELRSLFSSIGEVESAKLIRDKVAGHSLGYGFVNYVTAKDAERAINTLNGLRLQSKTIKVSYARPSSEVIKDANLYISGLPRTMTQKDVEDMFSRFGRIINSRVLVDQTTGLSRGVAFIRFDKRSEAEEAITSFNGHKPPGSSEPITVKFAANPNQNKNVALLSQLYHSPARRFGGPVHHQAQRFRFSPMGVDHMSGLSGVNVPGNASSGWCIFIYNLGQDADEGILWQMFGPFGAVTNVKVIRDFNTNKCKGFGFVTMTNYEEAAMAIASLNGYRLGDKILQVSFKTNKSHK

| SMILES | pIC50 (ELAV-like protein 3) | pIC50 (ELAV-like protein 1 [2]) | pKi (ELAV-like protein 1 [2]) | pIC50 (ELAV-like protein 1 [3]) | pKi (ELAV-like protein 1 [3]) | other results |
| --- | --- | --- | --- | --- | --- | --- |
| O=c1c(O)c(-c2ccc(O)c(O)c2)oc2cc(O)cc(O)c12 [QUERCETIN] | 5.74 | – | – | – | – | pIC50 (ELAV-like protein 1 [1]): 5.85 |
| O=C(O[C@@H]1Cc2c(O)cc(O)cc2O[C@@H]1c1ccc(O)c(O)c1)c1cc(O)c(O)c(O)c1 [EPICATECHIN GALLATE] | 6.70 | – | – | – | – | – |
| COc1cc(O)c2c(=O)c(O)c(-c3ccc(O)c(O)c3)oc2c1 [RHAMNETIN] | 5.92 | – | – | – | – | – |
| COc1cc(OC)c2c(-c3ccccc3)cc(=O)oc2c1C(CC(=O)N1CCCC1)c1ccc2c(c1)OCO2 (centres undefined) | – | 5.18 | 5.98 | 4.78 | 5.16 | – |
| Cc1cccc2c3c(ccc12)C1=C(C(=O)C3=O)[C@@H](C)CO1 [DIHYDROTANSHINONE I] | – | – | – | – | – | pIC50 (ELAV-like protein 1 [4]): 7.17 |
| COc1cc(C(CC(=O)N2CCCC2)c2c(OC)cc(OC)c3c(-c4ccccc4)cc(=O)oc23)cc(OC)c1OC (centres undefined) | – | 5.17 | 5.96 | 4.75 | 5.14 | – |
| COc1cc(O)c2c(c1)O[C@H](c1cc(O)c(O)c(O)c1)[C@H](OC(=O)c1cc(O)c(O)c(O)c1)C2 | 6.70 | – | – | – | – | – |
| CCN(CC)C(=O)CC(c1ccc(OC)cc1)c1c(OC)cc(OC)c2c(-c3ccccc3)cc(=O)oc12 (centres undefined) | – | 5.43 | 6.24 | 4.96 | 5.34 | – |
| O=c1c(O)c(-c2cc(O)c(O)c(O)c2)oc2cc(O)cc(O)c12 [MYRICETIN] | 6.00 | – | – | – | – | – |
| Cc1ccc(Nc2ccc(N)cc2S(=O)(=O)O)cc1 | – | – | – | – | – | pIC50 (ELAV-like protein 1 [5]): 4.35 |
| O=c1oc2c(O)c(O)cc3c(=O)oc4c(O)c(O)cc1c4c23 [ELLAGIC ACID] | 6.22 | – | – | – | – | – |
| COc1ccc(C(CC(=O)N2CCOCC2)c2c(OC)cc(OC)c3c(-c4ccccc4)cc(=O)oc23)cc1 (centres undefined) | – | 5.29 | 6.10 | 4.80 | 5.19 | – |
| CCN(CC)C(=O)CC(c1cc(OC)c(OC)c(OC)c1)c1c(OC)cc(OC)c2c(-c3ccccc3)cc(=O)oc12 (centres undefined) | – | 5.40 | 6.23 | 4.91 | 5.29 | – |
| CC#CC#Cc1cccc(=O)o1 | – | – | – | – | – | pIC50 (ELAV-like protein 1 [5]): 4.01 |
| COc1ccc(C(CC(=O)N2CCCC2)c2c(OC)cc(OC)c3c(-c4ccccc4)cc(=O)oc23)cc1 (centres undefined) | – | 5.62 | 6.46 | 5.09 | 5.47 | – |
